Calls of active or inactive are those of the source. No cut-off for these calls is given here.
Assays:
A549 [1] = assay: Antiproliferative activity against human A549 cells assessed as inhibition of cell growth incubated for 48 hrs by MTT assay; format: functional, cell-based; conditions: A549, 48 h
MDA-MB-231 = assay: Antiproliferative activity against human MDA-MB-231 cells assessed as inhibition of cell growth incubated for 48 hrs by MTT assay; format: functional, cell-based; conditions: MDA-MB-231, 48 h
HT-29 = assay: Antiproliferative activity against human HT-29 cells assessed as inhibition of cell growth incubated for 48 hrs by MTT assay; format: functional, cell-based; conditions: HT-29, 48 h
HeLa = assay: Antiproliferative activity against human HeLa cells assessed as inhibition of cell growth incubated for 48 hrs by MTT assay; format: functional, cell-based
MCF7 [2] = assay: Inhibition of colony formation in human MCF7 cells at 5 to 20 nM incubated for 2 weeks in 5% CO2 at 37 degC by crystal violet staining based analysis; format: functional, cell-based; conditions: dose 5-20 nM
Tubulin = assay: Inhibition of tubulin polymerization (unknown origin) measured for 60 mins by fluorescence based analysis; format: protein-complex assay, Homo sapiens
MCF7 [3] = assay: Induction of cell cycle arrest in human MCF7 cells assessed as proportion of cells at G1 phase at 6.25 nM incubated for 24 hrs by PI staining based flow cytometry (reference value: 64.5%); format: functional
MCF7 [4] = assay: Induction of cell cycle arrest in human MCF7 cells assessed as proportion of cells at G2 phase at 6.25 nM incubated for 24 hrs by PI staining based flow cytometry (reference value: 14.4%); format: functional
MCF7 [5] = assay: Induction of cell cycle arrest in human MCF7 cells assessed as proportion of cells at G1 phase at 12.5 nM incubated for 24 hrs by PI staining based flow cytometry (reference value: 64.5%); format: functional
MCF7 [6] = assay: Induction of cell cycle arrest in human MCF7 cells assessed as proportion of cells at G2 phase at 12.5 nM incubated for 24 hrs by PI staining based flow cytometry (reference value: 14.4%); format: functional
MCF7 [7] = assay: Induction of cell cycle arrest in human MCF7 cells assessed as proportion of cells at G2 phase at 25 nM incubated for 24 hrs by PI staining based flow cytometry (reference value: 14.4%); format: functional
MCF7 [8] = assay: Induction of cell cycle arrest in human MCF7 cells assessed as proportion of cells at S phase at 25 nM incubated for 24 hrs by PI staining based flow cytometry (reference value: 21.1%); format: functional
MCF7 [9] = assay: Induction of cell cycle arrest in human MCF7 cells assessed as proportion of cells at G2 phase at 25 nM incubated for 6 hrs by PI staining based flow cytometry (reference value: 14.4%); format: functional
MCF7 [10] = assay: Induction of cell cycle arrest in human MCF7 cells assessed as proportion of cells at S phase at 25 nM incubated for 6 hrs by PI staining based flow cytometry (reference value: 21.1%); format: functional
MCF7 [11] = assay: Induction of cell cycle arrest in human MCF7 cells assessed as proportion of cells at G1 phase at 25 nM incubated for 12 hrs by PI staining based flow cytometry (reference value: 64.5%); format: functional
MCF7 [12] = assay: Induction of cell cycle arrest in human MCF7 cells assessed as proportion of cells at G2 phase at 25 nM incubated for 12 hrs by PI staining based flow cytometry (reference value: 14.4%); format: functional
MCF7 [13] = assay: Induction of cell cycle arrest in human MCF7 cells assessed as proportion of cells at S phase at 25 nM incubated for 12 hrs by PI staining based flow cytometry (reference value: 21.1%); format: functional
MCF7 [14] = assay: Induction of cell cycle arrest in human MCF7 cells assessed as increase in cyclin B1 protein expression at 6.25 to 50 nM incubated for 24 hrs by western blot analysis; format: functional, cell-based; conditions: dose 6.25-50 nM
MCF7 [15] = assay: Induction of cell cycle arrest in human MCF7 cells assessed as increase in p21 protein expression at 6.25 to 50 nM incubated for 24 hrs by western blot analysis; format: functional, cell-based; conditions: dose 6.25-50 nM
Tubulin (Homo sapiens) [16] = target: T1, Tubulin (Homo sapiens) (UniProt P68371+Q9H4B7+P0DPH7+P68366+Q13509+Q71U36+P04350+Q3ZCM7+P07437+P68363+Q9BQE3+Q6PEY2+Q13885+Q9BVA1+Q9BUF5); assay: Displacement of [3H]colchicine from tubulin (unknown origin) at 5 uM incubated for 2 hrs by scinitillation proximity assay; format: protein-complex assay
MCF7 [17] = assay: Induction of apoptosis in human MCF7 cells at 12.5 to 50 nM incubated for 24 hrs by AnnexinV-FITC/PI staining based flow cytometry; format: functional, cell-based; conditions: dose 12.5-50 nM
MCF7 [18] = assay: Induction of apoptosis in human MCF7 cells at 50 nM incubated for 12 to 48 hrs by AnnexinV-FITC/PI staining based flow cytometry; format: functional, cell-based; conditions: time 12-48 hrs, TDE = time-dependent effect
MCF7 [19] = assay: Induction of apoptosis in human MCF7 cells assessed as increase in Bim protein expression at 6.25 to 50 nM incubated for 24 hrs by western blot analysis; format: functional, cell-based; conditions: dose 6.25-50 nM
MCF7 [20] = assay: Induction of apoptosis in human MCF7 cells assessed as increase in cleaved PARP protein expression at 6.25 to 50 nM incubated for 24 hrs by western blot analysis; format: functional, cell-based; conditions: dose 6.25-50 nM
MCF7 [21] = assay: Induction of apoptosis in human MCF7 cells assessed as increase in cleaved caspase-3 protein expression at 6.25 to 50 nM incubated for 24 hrs by western blot analysis; format: functional, cell-based; conditions: dose 6.25-50 nM
MCF7 [22] = assay: Induction of apoptosis in human MCF7 cells assessed as decrease in Bcl-2 protein expression at 6.25 to 50 nM incubated for 24 hrs by western blot analysis; format: functional, cell-based; conditions: dose 6.25-50 nM
Tubulin (Homo sapiens) [23] = target: T1, Tubulin (Homo sapiens); assay: Inhibition of tubulin polymerization in human MCF7 cells assessed as disruption of microtubule network into punctate at 25 to 200 nM incubated for 8 hrs by DAPI staining based immunofluorescence assay; format: cell-based; conditions: dose 25-200 nM
A549 [24] = assay: Inhibition of cell migration in human A549 cells at 2.5 to 10 nM incubated for 12 to 48 hrs by fluorescent inverted microscopy; format: functional, cell-based; conditions: dose 2.5-10 nM, time 12-48 hrs
A549 [25] = assay: Inhibition of cell migration in human A549 cells assessed as decrease in number of cells passing through membrane at 6.25 to 50 nM incubated for 24 hrs by transwell assay; format: functional, cell-based; conditions: dose 6.25-50 nM
MCF7 [26] = assay: Antitumor activity against human MCF7 cells xenografted in BALB/c mouse assessed as inhibition of tumor growth by measuring decrease in tumor weight at 20 mg/kg, ip administered every 3 days for 21 days; format: functional; conditions: MCF7, 504 h, time 21 day, read-out: TGI
MCF7 [27] = assay: Antitumor activity against human MCF7 cells xenografted in BALB/c mouse assessed as inhibition of tumor growth by measuring decrease in tumor weight at 10 mg/kg, ip administered every 3 days for 21 days; format: functional; conditions: MCF7, 504 h, time 21 day, read-out: TGI
MCF7 [28] = assay: Antitumor activity against human MCF7 cells xenografted in BALB/c mouse assessed as inhibition of tumor growth by measuring decrease in tumor weight at 5 mg/kg, ip administered every 3 days for 21 days; format: functional; conditions: MCF7, 504 h, time 21 day, read-out: TGI
MCF7 [29] = assay: Induction of apoptosis in human MCF7 cells assessed as increase in cleaved caspase-9 protein expression at 6.25 to 50 nM incubated for 24 hrs by western blot analysis; format: functional, cell-based; conditions: dose 6.25-50 nM
[30] = Toxicity against BALB/c mouse xenografted with human MCF7 cells assessed as body weight changes at 5 to 20 mg/kg, ip administered every 3 days for 21 days; format: organism-based; conditions: in vivo, 504 h, dose 5-20 mg/kg, time 21 day

IC50 (A549 [1]): 390 nM
IC50 (MDA-MB-231): 40 nM
IC50 (HT-29): 60 nM
IC50 (HeLa): 110 nM
IC50 (Tubulin): 1870 nM
inhibition (Tubulin (Homo sapiens) [16]): 91.4%
inhibition (Tubulin (Homo sapiens) [23]): Active
SMILES: COc1cc(C(=O)n2nc(N)cc2-c2ccc(C)cc2)cc(OC)c1OC
inhibition (MCF7 [2]): Active
Activity (MCF7 [3]): 53.3%
Activity (MCF7 [4]): 28.3%
Activity (MCF7 [5]): 45.1%
Activity (MCF7 [6]): 39.2%
Activity (MCF7 [7]): 80.2%
Activity (MCF7 [8]): 10.65%
Activity (MCF7 [9]): 46.7%
Activity (MCF7 [10]): 22%
Activity (MCF7 [11]): 14.3%
Activity (MCF7 [12]): 62.8%
Activity (MCF7 [13]): 22.9%
Activity (MCF7 [14]): Active
Activity (MCF7 [15]): Active
Activity (MCF7 [17]): Dose-Dependent Effect
Activity (MCF7 [18]): Tde
Activity (MCF7 [19]): Active
Activity (MCF7 [20]): Active
Activity (MCF7 [21]): Active
Activity (MCF7 [22]): Active
inhibition (A549 [24]): Dose-Dependent Effect
inhibition (A549 [25]): Active
inhibition in vivo at 20 mg/kg (MCF7 [26]): 69%
inhibition in vivo at 10 mg/kg (MCF7 [27]): 36.1%
inhibition in vivo at 5 mg/kg (MCF7 [28]): 27%
Activity (MCF7 [29]): Active
Activity [30]: Non-Toxic

Reference: ChEMBL document CHEMBL5512613, “Design and synthesis of novel 3-amino-5-phenylpyrazole derivatives as tubulin polymerization inhibitors targeting the colchicine-binding site” (Eur J Med Chem, 2024)
